The assay deals with up-regulation of ICAM-1 (CD54) by IFNγ in U937 human monocytic cells. In words: U937 IFNγ ICAM1 FACS Assay. The following applies: U937 cells stimulated with IFNγ; ICAM-1 expression by FACS; read-out: IC50, Example 44. It is filed as cell-based. The method, boiled down: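 U937 cells in 10% FCS RPMI were preincubated 30 min at 37 °C with an 8-point, 3-fold compound dilution series in duplicate, then stimulated with IFNγ for 18–24 h. Surface ICAM-1 was stained with APC anti-ICAM-1 and read by flow cytometry as geometric mean on live-gated cells. EC50 was derived.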
On to `Cc1cc(COc2ccc(Nc3nc(Nc4cc(C)c(F)c(S(N)(=O)=O)c4)ncc3F)cc2F)no1` [Compound I-224, N2-(3-Aminosulfonyl-4-fluoro-5-methylphenyl)-5-fluoro-N4-[3-fluoro-4-(5-methylisoxazol-3-yl)methyleneoxyphenyl]-2,4-pyrimidinediamine], for which the IC50 came out at 494 nM. `Cc1noc(COc2ccc(Nc3nc(Nc4ccc(S(N)(=O)=O)cc4)ncc3F)cc2)n1` [Compound I-231, N2-(4-Aminosulfonylphenyl)-5-fluoro-N4-[4-(3-methyl-1,2,4-oxadiazol-5-yl)methyleneoxyphenyl]-2,4-pyrimidinediamine]: the IC50 is 8400 nM. The figure for `Cc1cc(COc2ccc(Nc3nc(Nc4ccc(F)c(S(N)(=O)=O)c4)ncc3F)cc2)no1` [Compound I-233, N2-(3-Aminosulfonyl-4-fluorophenyl)-5-fluoro-N4-[4-(5-methylisoxazol-3-yl)methyleneoxyphenyl]-2,4-pyrimidinediamine] is 1750 nM; for `Cc1cc(COc2ccc(Nc3nc(Nc4ccc(C)c(S(N)(=O)=O)c4)ncc3F)cc2C)no1` [Compound I-234, N2-(3-Aminosulfonyl-4-methylphenyl)-5-fluoro-N4-[3-methyl-4-(5-methylisoxazol-3-yl)methyleneoxyphenyl]-2,4-pyrimidinediamine] it is 2020 nM. For the molecule `CNS(=O)(=O)c1cc(Nc2ncc(F)c(Nc3ccc(OCc4cc(C)on4)cc3)n2)ccc1C` [Compound I-235, 5-Fluoro-N2-[3-(N-methyl)aminosulfonyl-4-methylphenyl]-N4-[4-(5-methylisoxazol-3-yl)methyleneoxyphenyl]-2,4-pyrimidinediamine], the IC50 was found to be 2560 nM.

Turning to `Cc1cc(COc2ccc(Nc3nc(Nc4ccc(F)c(S(N)(=O)=O)c4)ncc3F)cc2C)no1` [Compound I-237, N2-(3-Aminosulfonyl-4-fluorophenyl)-5-fluoro-N4-[3methyl-4-(5-methylisoxazol-3-yl)methyleneoxyphenyl]-2,4-pyrimidinediamine], the IC50 worked out at 3580 nM. Take `Cc1cc(COc2ccc(Nc3nc(Nc4cccc(S(N)(=O)=O)c4)ncc3F)cc2C)no1` [Compound I-238, N2-(3-Aminosulfonylphenyl)-5-fluoro-N4-[3-methyl-4-(5-methylisoxazol-3-yl)methyleneoxyphenyl]-2,4-pyrimidinediamine]: the IC50 was 1130 nM. Take `CCN(CC)CCNS(=O)(=O)c1cccc(Nc2ncc(F)c(Nc3ccc(OCc4cc(C)on4)cc3)n2)c1` [Compound I-241, N2-[3-(2-N,N-Diethylaminoethyl)aminosulfonylphenyl)-5-fluoro-N4-[4-(5-methylisoxazol-3-yl)methyleneoxyphenyl]-2,4-pyrimidinediamine]: the half-inhibitory concentration (IC50) worked out at 2870 nM. As for `CCN(CC)CCNS(=O)(=O)c1cccc(Nc2ncc(F)c(Nc3ccc(OCc4cc(C)on4)c(C)c3)n2)c1` [Compound I-244, N2-[3-(2-N,N-Diethylaminoethyl)aminosulfonylphenyl)-5-fluoro-N4-[3-methyl-4-(5-methylisoxazol-3-yl)methyleneoxyphenyl]-2,4-pyrimidinediamine], the IC50 came out at 3120 nM. The figure for `CCN(CC)CCNS(=O)(=O)c1ccc(Nc2ncc(F)c(Nc3ccc(OCc4cc(C)on4)c(C)c3)n2)cc1` [Compound I-245, N2-[4-(2-N,N-Diethylaminoethyl)aminosulfonylphenyl)-5-fluoro-N4-[3-methyl-4-(5-methylisoxazol-3-yl)methyleneoxyphenyl]-2,4-pyrimidinediamine] is 4190 nM.

For `CCN(CC)CCNS(=O)(=O)c1ccc(Nc2ncc(F)c(Nc3ccc(OCc4cc(C)on4)cc3)n2)cc1` [Compound I-246, N2-[4-(2-N,N-Diethylaminoethyl)aminosulfonylphenyl)-5-fluoro-N4-[4-(5-methylisoxazol-3-yl)methyleneoxyphenyl]-2,4-pyrimidinediamine], the IC50 worked out at 873 nM. Take `Cc1cc(COc2ccc(Nc3nc(Nc4cccc(S(=O)(=O)N(Cc5oc(=O)oc5C)Cc5oc(=O)oc5C)c4)ncc3F)cc2)no1` [Compound I-248, N2-{3-[N-N-Di-[(5-Methyl-1,3-dioxolene-2-one-4-yl)methylene]]aminosulfonylphenyl}-5-fluoro-N4-[4-(5-methylisoxazol-3-yl)methyleneoxyphenyl]-2,4-pyrimidinediamine]: the IC50 was determined as 2660 nM. `Cc1noc(COc2cccc(Nc3nc(Nc4cccc(S(N)(=O)=O)c4)ncc3F)c2)n1` [Compound I-252, N2-(3-Aminosulfonylphenyl)-5-fluoro-N4-[3-(3-methyl-1,2,4-oxadiazol-5-yl)methyleneoxyphenyl]-2,4-pyrimidinediamine]: the IC50 is 2470 nM. Turning to `Cc1noc(COc2cccc(Nc3nc(Nc4ccc(C)c(S(N)(=O)=O)c4)ncc3F)c2)n1` [Compound I-254, N2-(3-Aminosulfonyl-4-methylphenyl)-5-fluoro-N4-[3-(3-methyl-1,2,4-oxadiazol-5-yl)methyleneoxyphenyl]-2,4-pyrimidinediamine], the half-inhibitory concentration (IC50) was found to be 1820 nM. Consider `CNS(=O)(=O)c1cc(Nc2ncc(F)c(Nc3cccc(OCc4nc(C)no4)c3)n2)ccc1C` [Compound I-255, 5-Fluoro-N2-[3-(N-methylaminosulfony)-4-methylphenyl]-N4-[3-(3-methyl-1,2,4-oxadiazol-5-yl)methyleneoxyphenyl]-2,4-pyrimidinediamine], for which the IC50 came out at 5520 nM. `CCN(CC)CCNS(=O)(=O)c1ccc(Nc2ncc(F)c(Nc3cccc(OCc4nc(C)no4)c3)n2)cc1` [Compound I-256, N2-[4-(2-N,N-Diethylaminoethyl)aminosulfonylphenyl)-5-fluoro-N4-[3-(3-methyl-1,2,4-oxadiazol-5-yl)methyleneoxyphenyl]-2,4-pyrimidinediamine]: the IC50 came to 15900 nM. In the case of `Cc1noc(COc2ccc(Nc3nc(Nc4cccc(S(=O)(=O)NCc5oc(=O)oc5C)c4)ncc3F)cc2)n1` [Compound I-257, N2-{3-[(N-5-Methyl-1,3-dioxolene-2-one-4-yl)methylene]aminosulfonylphenyl}-5-fluoro-N4-[4-(3-methyl-1,2,4-oxadiazol-5-yl)methyleneoxyphenyl]-2,4-pyrimidinediamine], the IC50 was 959 nM. With `Cc1noc(COc2ccc(Nc3nc(Nc4cccc(S(N)(=O)=O)c4)ncc3F)cc2)n1` [Compound I-258, N2-(3-Aminosulfonylphenyl)-5-fluoro-N4-[4-(3-methyl-1,2,4-oxadiazol-5-yl)methyleneoxyphenyl]-2,4-pyrimidinediamine], the IC50 amounted to 324 nM. The result for `Cc1noc(COc2ccc(Nc3nc(Nc4ccc(C)c(S(N)(=O)=O)c4)ncc3F)cc2)n1` [Compound I-259, N2-(3-Aminosulfonyl-4-methylphenyl)-5-fluoro-N4-[4-(3-methyl-1,2,4-oxadiazol-5-yl)methyleneoxyphenyl]-2,4-pyrimidinediamine] reads 315 nM; that for `CNS(=O)(=O)c1cc(Nc2ncc(F)c(Nc3ccc(OCc4nc(C)no4)cc3)n2)ccc1C` [Compound I-260, 5-Fluoro-N2-[3-N-(methyl)aminosulfonyl-4-methylphenyl)-N4-[4-(3-methyl-1,2,4-oxadiazol-5-yl)methyleneoxyphenyl]-2,4-pyrimidinediamine], 985 nM.

Take `CCN(CC)CCNS(=O)(=O)c1ccc(Nc2ncc(F)c(Nc3ccc(OCc4nc(C)no4)cc3)n2)cc1` [Compound I-263, N2-[4-(2-N,N-Diethylaminoethyl)aminosulfonylphenyl)-5-fluoro-N4-[4-(3-methyl-1,2,4-oxadiazol-5-yl)methyleneoxyphenyl]-2,4-pyrimidinediamine]: the IC50 was 665 nM.

Regarding `Cc1noc(COc2ccc(Nc3nc(Nc4cc(C)c(Cl)c(S(N)(=O)=O)c4)ncc3F)cc2)n1` [Compound I-265, N2-(3-Aminosulfonyl-4-chloro-5-methylphenyl)-5-fluoro-N4-[4-(3-methyl-1,2,4-oxadiazol-5-yl)methyleneoxyphenyl]-2,4-pyrimidinediamine], the IC50 came to 415 nM. Consider `Cc1noc(COc2ccc(Nc3nc(Nc4ccc(F)c(S(N)(=O)=O)c4)ncc3F)cc2)n1` [Compound I-266, N2-(3-Aminosulfonyl-4-fluorophenyl)-5-fluoro-N4-[4-(3-methyl-1,2,4-oxadiazol-5-yl)methyleneoxyphenyl]-2,4-pyrimidinediamine], for which the IC50 was found to be 824 nM. Take `Cc1noc(CCc2ccc(Nc3nc(Nc4ccc(F)c(S(N)(=O)=O)c4)ncc3F)cc2)n1` [Compound I-267, N2-(3-Aminosulfonyl-4-fluorophenyl)-5-fluoro-N4-[4-(3-methyl-1,2,4-oxadiazol-5-yl)ethylenephenyl]-2,4-pyrimidinediamine]: the IC50 was 5070 nM.

On to `Cc1noc(COc2ccc(Nc3nc(Nc4ccc(S(N)(=O)=O)cc4)ncc3F)cc2)n1` [Compound I-268, N2-(4-Aminosulfonylphenyl)-5-fluoro-N4-(4-[3-methyl-1,2,4-oxadiazol-5-yl]methyleneoxyphenyl)-2,4-pyrimidinediamine], for which the IC50 is 219 nM. For the molecule `Cc1nc(COc2ccc(Nc3nc(Nc4ccc(S(N)(=O)=O)cc4)ncc3F)cc2)no1` [Compound I-275, N2-(4-Aminosulfonyl)phenyl-5-fluoro-N4-[4-(5-methyl-1,2,4-oxadiazol-3-yl)methoxy]phenyl-2,4-pyrimidinediamine], the IC50 was 1900 nM. The figure for `Cc1nc(COc2ccc(Nc3nc(Nc4cccc(S(N)(=O)=O)c4)ncc3F)cc2)no1` [Compound I-276, N2-(3-Aminosulfonyl)phenyl-5-fluoro-N4-[4-(5-methyl-1,2,4-oxadiazol-3-yl)methoxy]phenyl-2,4-pyrimidinediamine] is 822 nM.

With `Cc1nnc(COc2ccc(Nc3nc(Nc4cccc(S(N)(=O)=O)c4)ncc3F)cc2)o1` [Compound I-277, N2-(3-aminosulfonylphenyl)-5-fluoro-N4-[4-(5-methyl-1,3,4-oxadiazol-2-yl)methyleneoxyphenyl]-2,4-pyrimidinediamine], the IC50 was 1470 nM.
